The term IC50 denotes the concentration at which inhibition is half-maximal. As a reminder, the LD50 is the dose at which mortality reaches 50%.

SMILES strings stand for the structures. Calls of active or inactive are those of the source. The calls are words filed in the database; no cut-off is given here.

Series [1] deals with HeLa. The series is described as follows: Antiproliferative activity against human HeLa cells assessed as inhibition of cell growth incubated for 48 hrs in presence of beta-glucuronidase by MTT assay. In kind it is functional, cell-based. For orientation: Tetrazolium dyes change colour on reduction, which living cells bring about.
The nature of series [2]: Metabolic stability in rat liver microsomes assessed as parent compound remaining at 10 mM measured up to 60 mins in presence of NADPH by LC-MS/MS analysis. In kind it is ADME, Microsome. Particulars: read-out: Stability. (Liver microsomes are a subcellular fraction often used to study metabolism.)
A further series deals with MCF7. The series is described as follows: Antiproliferative activity against human MCF7 cells assessed as inhibition of cell growth incubated for 48 hrs in absence of beta-glucuronidase by MTT assay. In kind it is functional, cell-based. The conditions noted are these: MCF7, 48 h.
Series [3] in a line: Toxicity in nude mouse assessed as effect on basophil level at 40 mg/kg, iv administered qd for 3 days (reference value: 11.70 %). It counts as organism-based. The conditions noted are these: in vivo, 72 h, time 3 day.
The nature of series [4]: Toxicity in nude mouse assessed as effect on albumin level in serum at 40 mg/kg, iv administered qd for 3 days (reference value: 31.2 g/L). It counts as organism-based. Particulars: in vivo, 72 h, time 3 day.
Series [5] is described as follows: Toxicity in nude mouse assessed as effect on gamma-glutamyl transpeptidase level in serum at 40 mg/kg, iv administered qd for 3 days (Rvb < 2 U/L). It counts as organism-based. Particulars: in vivo, 72 h, time 3 day.
Series [6] in a line: Acute toxicity in BALB/c mouse assessed as lethal dose administered intravenously as single dose and measured after 14 days. Particulars: in vivo, route iv, time 14 day.
Series [7] relates to MDA-MB-231. The series is described as follows: Antitumour activity against human MDA-MB-231 cells xenografted in nude mouse assessed as reduction in tumor volume at 40 mg/kg, iv administered every 2 days for 14 days. In kind it is functional, organism-based. The conditions noted are these: time 14.0 day. For orientation: In xenograft studies the graft and the host belong to different species.

The nature of series [8]: Chemical stability of compound at pH 7.4 in PBS buffer at 1 mg incubated for 48 hrs by HPLC analysis. The conditions noted are these: pH 7.4, 48 h. It counts as physicochemical.
The nature of series [9]: Toxicity in nude mouse assessed as effect on mean corpuscular hemoglobin concentration at 40 mg/kg, iv administered qd for 3 days (reference value: 473 g/L). The conditions noted are these: in vivo, 72 h, time 3 day. In kind it is organism-based.
The subject of series [10] is MDA-MB-231. Nature of the series: Antiproliferative activity against human MDA-MB-231 cells assessed as inhibition of cell growth incubated for 48 hrs in presence of beta-glucuronidase by MTT assay. It counts as functional, cell-based. Particulars: MDA-MB-231, 48 h.
For a further series, the system named is SK-OV-3. The series is described as follows: Antiproliferative activity against human SK-OV-3 cells assessed as inhibition of cell growth incubated for 48 hrs in absence of beta-glucuronidase by MTT assay. In kind it is functional, cell-based. Particulars: SK-OV-3, 48 h.
Series [11] has as its system HeLa. Nature of the series: Antiproliferative activity against human HeLa cells assessed as inhibition of cell growth incubated for 48 hrs in absence of beta-glucuronidase by MTT assay. It counts as functional, cell-based.

As for `COc1ccc([C@H]2[C@H](CO)C(=O)N2c2cc(OC)c(OC)c(OC)c2)cc1OCc1ccc(O[C@@H]2O[C@H](C(=O)O)[C@@H](O)[C@H](O)[C@H]2O)cc1`, the IC50 was 8.9 nM with HeLa [1]; greater than 50000 nM with MCF7; 11.7 nM in the series with MDA-MB-231 [10]; greater than 50000 nM in the series with SK-OV-3; greater than 50000 nM in the series on HeLa [11]. Further, the remaining at 1 h in series [2] was found to be 74.9%. Moreover, the Activity in series [3] is listed as 6.8%; in series [4] it was 29.5 g/L; in series [5], less than 2 U/L; in [9] it was 512 g/L. Besides, the LD50 at 336 h in series [6] is greater than 500 mg/kg. For the same molecule, the result in the series on MDA-MB-231 [7] was Active. Also, in series [8], the Stability result is recorded as “Stable”.

Values taken from ChEMBL document CHEMBL5154856, “Targeting the tumor microenvironment by an enzyme-responsive prodrug of tubulin destabilizer for triple-negative breast cancer therapy with high safety” (Eur J Med Chem, 2022).
